# Results taken from PMC12518639, “Apomorphine is a novel necroptosis inhibitor targeting mixed lineage kinase domain-like protein oligomerization” (Cell Death Discovery, 2025).
# Structures can show the parent of a compound that is named as a salt. Where two headings read alike, the source gives them in different places.
# How the values were obtained:
# [1] = test system: THP-1-HMGB1-Lucia cells; assay: TBZ-induced necroptosis screening by HMGB1-luciferase release; type: cell-based, human; settings: 8 h, read-out: % Inhibition (luciferase activity relative to TBZ-treated supernatant); for activity at 20 µM: Homo sapiens
# Procedure: (§1) To identify potential inhibitors of the necroptosis pathway targeting MLKL or the process of p-MLKL pore formation on the membrane, we screened a library of 2150 compounds, including FDA-approved drugs and those in phase 1–3 clinical trials, using THP-1-HMGB1-Lucia™ cells expressing the HMGB1-luciferase fusion protein. The cells were treated with a necroptosis-inducing mixture containing TNF-α, BV6, and Z-VAD-FMK (TBZ) in addition to the compound library (Fig. 1A). The supernatants were harvested to measure luciferase activities for necroptosis. The luciferase activities of cell supernatants treated with TBZ alone were considered as the maximum release (100%) of HMGB1-luciferase. NEC-1, a known RIP1 inhibitor used in both humans and mice, was used as a positive control. […] Next, we performed a propidium iodide (PI) uptake assay to exclude cytotoxic compounds using THP-1 cells. Then, we selected candidate molecules that were arbitrarily less than 30% of those treated with TBZ. […] Next, the inhibition levels of p-MLKL were tested to select MLKL-targeting molecules (Figs. 1C and S1A). Compounds that reduced p-MLKL levels to less than 30% of TBZ-treated controls were considered as potential inhibitors of MLKL phosphorylation. Conversely, compounds that maintained p-MLKL levels above 70% were selected because they are presumed to prevent the formation of pores in the plasma membrane by interfering with oligomerization.
# A clinical chemical library containing 2150 items (Korea Chemical Bank, South Korea), under phase 1–3 clinical trials, including FDA-approved drugs, was used to screen for necroptosis inhibitors. Each chemical was dissolved in DMSO and diluted to 20 μM in DPBS for treatment.
# THP-1-HMGB1-Lucia^TM cells were pretreated with the pan-caspase inhibitor Z-VAD-FMK (50 μM, tlrl-vad, InvivoGen) and each chemical for 1 h, and followed by TNF-α (100 ng/mL, TNF0501, NKMAXBio, Seongnam, S. Korea) and Smac mimetic BV6 (10 μM, B1332-5, Biovision, Santa Clara, CA, USA), termed TBZ mixture, were added for necroptosis screening. The RIP1 inhibitor, NEC-1 (1846, Biovision), and MLKL inhibitor, NSA (432531-71-0, Sigma-Aldrich, St. Louis, MO, USA), were used as controls. The cell supernatant was harvested to measure HMGB1 levels using a luciferase assay kit (E1500, Promega, Madison, WI, USA) by a luminometer (Centro XS3 LB 960, Berthold Technologies, Bad Wildbad, Germany). The inhibition of necroptosis (%) was calculated as: (sample-treated data – medium-only data) × 100/(TBZ-treated data – medium-only data). APO [STK088477, (6aS)-6-methyl-5,6,6a,7-tetrahydro-4H-dibenzo[de,g]quinoline-10,11-diol, Vitas-M Laboratory, Hong Kong] was stored at −70 °C after aliquoting with DMSO. APO was used after dilution in DPBS. APO is susceptible to auto-oxidation in solution in the presence of light and air. DPBS containing 5 mM DTT was used for Re-APO. Ox-APO was prepared by incubating APO in DPBS at 25 °C for 24 h in the presence of light and air, followed by removal of any precipitate by filtration through 0.2 μm.
# [2] = test system: p-MLKL; assay: Western blot of phosphorylated MLKL in whole cell lysates; type: cell-based, human; settings: Homo sapiens, read-out: p-MLKL/MLKL ratio relative to TBZ-treated cells (% Value)
# Procedure: as §1
# The cells were harvested and lysed in 1× RIPA buffer (R4100-010, GenDEPOT, Katy, TX, USA) containing protease (P3100-001, GenDEPOT) and phosphatase (1862495, Thermo Fisher Scientific) inhibitors. WCLs were then centrifuged at 20,000×g for 30 min at 4 °C and subjected to non-reducing or reducing 8–12% SDS-PAGE gel electrophoresis. The membrane was blocked with 5% non-fat milk in TBS and probed with antibodies. Antibodies to hMLKL (14993S), mMLKL (97705S), phospho-hMLKL (Ser358) (91689S), phospho-mMLKL (Ser345) (37333S), phospho-hRIP1 (Ser166) (65746S), mRIP1 (3493S), phospho-mRIP1 (Ser321) (38662S), phospho-hRIP3 (Ser227) (93654), mRIP3 (95702S), p-mRIP3 (Thr231/Ser232) (91702S), and LDH (2012S) (Cell Signaling Technology, Danvers, MA, USA), and GAPDH (LF-PA0018, Abfrontier, S. Korea), hRIP1 (ab72139, Abcam, Cambridge, UK), hRIP3 (sc-135170, Santa Cruz Biotechnology, Dallas, TX, USA), HMGB1 (ab78923, Abcam), and LAMP1 (ab24170, Abcam) antibodies were used.
# Fig. S1 Assessment of p-MLKL inhibition to identify MLKL-targeting molecules. (A) Quantification graph corresponding to Fig. 1C. […] Whole-cell lysates (WCLs) were collected and subjected to Western blot analysis under reducing conditions using antibodies against p-MLKL, MLKL, and GAPDH. The p-MLKL/MLKL ratio was quantified and compared to that of TBZ-treated cells. Data represent the mean of three independent experiments. (B) Quantification graph corresponding to Fig. 1D. […] Cytosolic and membrane fractions were collected and analyzed by Western blot under reducing conditions. The levels of p-MLKL and p-RIP1 were normalized to LDH (cytosolic marker) and LAMP1 (membrane marker), respectively. Quantified ratios were compared to those of TBZ-treated cells (n = 3 independent experiments).
# [3] = 20 μM compound with TBZ, TBZ alone = 100, DPBS = 0
# [4] = THP-1, TBZ and 20 μM compound, 8 h, whole cell lysates
Compound,"activity at 20 µM [1, 3] [%]",other results
"CCCCC1C(=O)N(c2ccccc2)N(c2ccc(O)cc2)C1=O (stereo not shown) [S4, Oxyphenbutazone]",0,"activity at 20 µM [2, 4]: 38%"
"Cc1ccc(Nc2nccc(N(C)c3ccc4c(C)n(C)nc4c3)n2)cc1S(N)(=O)=O [S10, Pazopanib]",9.4,"activity at 20 µM [2, 4]: 86%"
"CC1(C)CC[C@]2(C(=O)O)CC[C@]3(C)[C@H](C(=O)C=C4[C@@]5(C)C=C(C#N)C(=O)C(C)(C)[C@@H]5CC[C@]43C)[C@@H]2C1 [S16, Bardoxolone]",0,"activity at 20 µM [2, 4]: 0%"
"Cc1ccc(C(=O)Nc2ccc(CN3CCN(C)CC3)c(C(F)(F)F)c2)cc1C#Cc1cnc2cccnn12 [S17, Ponatinib]",–,"activity at 20 µM [1]: 4.5%; activity at 20 µM ([2]; THP-1, 8 h): 2%"
"O=C(Nc1ccc(Br)cc1)c1cccc(S(=O)(=O)Nc2ccc(Br)cc2)c1 [S19, N-(4-Bromophenyl)-3-[[(4-bromophenyl)amino]sulfonyl]benzamide]",5.3,"activity at 20 µM [2, 4]: 55%"
"Cc1ncc(-c2ccnc(Nc3ccc(S(C)(=O)=O)cc3)n2)n1C(C)C [S28, AZD 5438]",0,"activity at 20 µM [2, 4]: 55%"
"CC(C)(C)c1nc(-c2cccc(NS(=O)(=O)c3c(F)cccc3F)c2F)c(-c2ccnc(N)n2)s1 [S31, Dabrafenib]",4.5,"activity at 20 µM [2, 4]: 0%"
"C=C1C(=O)O[C@@H]2/C=C(\C)CC/C=C(\C)CC[C@@H]12 [S35, Costunolide]",9,"activity at 20 µM [2, 4]: 30%"
"C=C1C(=O)O[C@H]2[C@H]1CC/C(C)=C/CC[C@@]1(C)O[C@@H]21 [S38, Parthenolide]",0,"activity at 20 µM [2, 4]: 40%"
"Cc1cc(SCc2sc(-c3ccc(C(F)(F)F)cc3)nc2C)ccc1OCC(=O)O [S41, GW 501516]",9.1,–
"CNCc1ccc(-c2[nH]c3cc(F)cc4c3c2CCNC4=O)cc1 [S42, Rucaparib]",9.1,–
"N#CC1(c2ccc(NC(=O)c3cccnc3NCc3ccncc3)cc2)CCCC1 [S43, Apatinib]",3.4,–
"CC(C)[C@H](CO)Nc1nc(Nc2cccc(Cl)c2)c2ncn(C(C)C)c2n1 [S44, Purvalanol A]",3.8,–
"O=c1[nH]c2ccc(Cl)cc2c(N[C@@H]2CN3CCC2CC3)c1-c1nc2ccccc2[nH]1 [S45, CHIR 124]",–,"activity [1, 3]: 6.5%"
"COc1cc2nccc(Oc3ccc(NC(=O)Nc4cc(C)on4)c(Cl)c3)c2cc1OC [S46, Tivozanib]",9,"activity at 20 µM [2, 4]: 18%"
"Nc1ncnc2c1c(I)cn2[C@@H]1O[C@H](CO)[C@@H](O)[C@H]1O [S47, 5-Iodotubercidin]",–,"activity [1, 3]: 4.9%"
"C[C@@H]1O[C@@H](O[C@@H]2C=C3CC[C@@H]4[C@H](CC[C@]5(C)[C@@H](c6ccc(=O)oc6)CC[C@]45O)[C@@]3(C)CC2)[C@H](O)[C@H](O)[C@H]1O [S48, Proscillaridin]",–,activity at 20 µM [1]: 6.8%
"O=C1/C(=C/c2ccccc2F)CNC/C1=C\c1ccccc1F [S49, EF-24]",–,"activity [1, 3]: 10.2%"
"O=C(Nc1cccc2c(=O)cc(-c3nnn[nH]3)oc12)c1ccc(OCCCCc2ccccc2)cc1 [S50, Pranlukast]",10.9,–

Compound,"activity at 20 µM [1, 3] [%]",other results
"Cc1ccc(-n2nc(C(C)(C)C)cc2NC(=O)Nc2ccc(OCCN3CCOCC3)c3ccccc23)cc1 [S51, Doramapimod]",3.9,–
"O=S(=O)(c1ccccc1)N(CC(F)(F)F)c1ccc(C(O)(C(F)(F)F)C(F)(F)F)cc1 [S52, T0901317]",–,"activity [1, 3]: 7.2%"
"C#C[C@]1(O)CC[C@H]2[C@@H]3CCc4cc(OC5CCCC5)ccc4[C@H]3CC[C@@]21C [S54, Quinestrol]",8.2,–
"Nc1ccc2cc3ccc(N)cc3nc2c1 [S55, Proflavine hemisulfate]",3.5,–
"CO[C@H]1C[C@@H]2CC[C@@H](C)[C@@](O)(O2)C(=O)C(=O)N2CCCC[C@H]2C(=O)O[C@H]([C@H](C)C[C@@H]2CC[C@@H](O)[C@H](OC)C2)CC(=O)[C@H](C)/C=C(\C)[C@@H](O)[C@@H](OC)C(=O)[C@H](C)C[C@H](C)/C=C/C=C/C=C/1C [S56, Sirolimus]",0.3,–
"COc1cccc2c1C(=O)c1c(O)c3c(c(O)c1C2=O)C[C@@](O)(C(=O)CO)C[C@@H]3O[C@H]1C[C@H](N)[C@H](O[C@@H]2CCCCO2)[C@H](C)O1 [S57, Pirarubicin]",6.4,–
"O=C1c2c(O)ccc(O)c2C(=O)c2c(NCCNCCO)ccc(NCCNCCO)c21 [S58, Mitoxantrone hydrochloride]",7.6,"activity at 20 µM [2, 4]: 39%"
"NC(CO)(CO)CO [S59, Trometamol]",11,–
"COC(=O)C1=C(C)NC(C)=C(C(=O)OCCN(C)Cc2ccccc2)C1c1cccc([N+](=O)[O-])c1 (stereo not shown) [S60, Nicardipine hydrochloride]",3.8,–
"COc1cccc2c1C(=O)c1c(O)c3c(c(O)c1C2=O)C[C@@](O)(C(C)=O)C[C@@H]3O[C@H]1C[C@H](N)[C@H](O)[C@H](C)O1 [S61, Daunorubicin]",–,activity at 20 µM [1]: 6%
"COCCOC(=O)C1=C(C)NC(C)=C(C(=O)OC/C=C/c2ccccc2)C1c1cccc([N+](=O)[O-])c1 (stereo not shown) [S63, Cilnidipine]",11,–
"COc1ccc(CN2CCN(C(c3ccc(F)cc3)c3ccc(F)cc3)CC2)c(OC)c1OC [S64, Lomerizine hydrochloride]",–,"activity [1, 3]: 5.3%"
"CC[C@@]1(O)C(=O)OCc2c1cc1n(c2=O)Cc2cc3c(CN(C)C)c(O)ccc3nc2-1 [S65, Topotecan hydrochloride]",5.2,–
"COc1cccc2c1C(=O)c1c(O)c3c(c(O)c1C2=O)C[C@@](O)(C(=O)CO)C[C@@H]3O[C@H]1C[C@H](N)[C@H](O)[C@H](C)O1 [S66, Doxorubicin]",8.6,–
"O=S(=O)(c1cccc2cnccc12)N1CCCNCC1 [S68, Fasudil hydrochloride]",6,–
"O=C(N[C@H](CO)[C@H](O)c1ccc([N+](=O)[O-])cc1)C(Cl)Cl [S69, Chloramphenicol]",0,–
"CN(C)CCOC(c1ccccc1)c1ccccc1 [S70, Diphenhydramine]",19.1,–
"CCCc1c(-c2ccc(O)cc2)nn(-c2ccc(O)cc2)c1-c1ccc(O)cc1 [S71, PPT]",–,"activity [1, 3]: 1.5%"
JTE 013 [S11],–,"activity [1, 3]: 5.8%"
